Results taken from patent US6897065B1, “Method for maturation of conifer somatic embryos” (Woody Plant Biotech APS, priority 1999, dated 2005).

How the values were obtained:
[1] = system: Abies nordmanniana cell line G.3.8; assay: Maturation of established Abies nordmanniana cell line G.3.8 (fast proliferating); assay type: cell-based
From the text: Three different cell lines of Abies nordmanniana were used in the present study. The tested cell lines have been in continuous culture for several years. The cell line G.3.8 was initiated from an immature zygotic embryo in 1989 on half strength MS medium (Murashige and Skoog, 1962) as described previously (Nørgaard and Krogstrup, 1991), Cell line G.35.8 was initiated from a mature zygotic embryo on SH medium in 1991 (Nørgaard and Krogstrup, 1995), and cell line G.78.14 was initiated in 1993 from an immature zygotic embryo on modified half strength BLG medium (Verhagen and Wann, 1989). From 1996, all cultures were maintained by biweekly subculture onto fresh half strength modified BLG medium and grown at 24+/−1° C. in the dark. Cell lines G.3.8 and G.78.14 proliferated fast on maintenance medium with a doubling time of the weight shorter than 2 weeks. Cell line G.35.8 proliferated relatively slowly with a doubling time of the weight higher than 2 weeks.
The standard maturation medium (the control) is modified from the half strength BLG proliferation medium mentioned above. […] The choice of these three culture medium components is determined primarily by the conifer species in question. […] Similarly it is known that addition of PEG-4000 improves maturation. Still it may be possible to obtain just as good results with other combinations of these components and also by using other components with equivalent effects.
In this experiment, the standard maturation medium was modified by excluding PEG and by including one of the following 3 chemicals, that are traditionally expected to affect the endogenous concentration of the naturally occurring auxin IAA or to affect the normal effect of auxin in plant cells: 1) PCIB (auxin-antagonist) in a concentration of 25 or 117 μM, 2) TIBA (auxin transport inhibitor) in a concentration of 5 or 50 μM, 3) phlouroglucinol: (inhibitor of auxin degradation) (see George 1993, page 429 bottom-430) in a concentration of 30 mM. In addition to these modifications the standard maturation medium was modified by: 4) reducing the concentration of boron (precursor of indole acetic acid synthesis) to 10 μM, i.e. 20% of the normal concentration and finally by 5) including 25 μM PCIB in medium with no ABA.
The cultures were matured in the dark at 24° C.+/−1° C.
Two weeks after the last subculture, 4 grams of embryogenic cells was transferred to a 250 mL Flask (Blue cap) together with a magnet stirrer. 100 mL of liquid proliferation medium was added, and the suspension was stirred for 5 minutes at high speed on a magnet stirrer to obtain a homogenous suspension of cells and cell clumps. The culture was then pre-cultured on a gyrotory shaker (120 rpm) for one week at 24+/−1° C. in the dark. […]

[2] = system: mature somatic embryos of Abies nordmanniana; assay: Germination of mature somatic embryos; settings: embryos matured with PCIB in the maturation medium
Description: Well-developed mature embryos were collected for cold treatment after about 20 weeks of maturation. The isolated mature embryos were transferred to a nylon filter that was placed on a foam rubber pad in a high Petri dish. A wetted filter paper was placed in the bottom and in the lid of the Petri dish. The Petri dish was closed, sealed with two rounds of polyethylene film, wrapped with aluminium foil, and then placed at 5° C. in the dark for 4 weeks for cold treatment. After cold treatment, the nylon filter with the mature embryos was transferred to BGM-2 medium (Krogstrup et al, 1988). The BGM-2 medium included 20 g/L sucrose, 10 g/L activated charcoal (Merck 5411), and was galled with 3.5 g/L Phytagel (Gellan gum). The Petri dishes were placed in a growth room at 20° C. with a 16 hour photoperiod. After one week of germination, the nylon net was removed and the embryos were placed in direct contact with the medium. After two weeks of germination, embryos with a root were placed vertically with the root submerged in the medium. Later, the germinating embryos were transferred to soil and placed in a controlled greenhouse.

[3] = system: Picea abies embryogenic cell lines D.2.9, D.4.1, D.7.1; assay: Maturation in embryogenic cultures of Picea abies; assay type: cell-based
Description: Three embryogenic cell lines, D.2.9, D.4.1, D.7.1, of Picea abies, initiated from immature seeds in 1989 and kept in cryostorage until 1998 as described by Nørgaard et al (1993) were used for the present experiment. The cultures were maintained on semi-solid proliferation medium BMI-S1 (Krogstrup 1986) gelled with 1.8 g/L gelrite by biweekly sub-cultures. Prior to transfer to maturation medium, 4 grams of cell mass from each cell line was weighed off and transferred to 50 ml liquid proliferation medium in a 250 ml Erlenmeyer flask. The flask also contained a sterile magnet.
To disintegrate the cultures they were stirred for 5 minutes using a magnet stirrer. Then the flasks were shaken for 15 minutes on a rotary shaker at 175 rpm. The medium with suspended cell aggregates were subsequently poured into a 100 ml measuring cylinder and allowed to settle for 30 minutes. The supernatant was discarded and aliquots of 1 ml of cells were plated on sterile Whatman #54 paper discs placed an the various maturation media. Three replicate dishes were made for each combination of cell line and treatment.
Five maturation protocols were tested. • A: Maturation on BMG-1 medium (Krogstrup et al 1988) modified by increasing the ABA concentration to 40 μM. • B: As A, but from week 2 to week 4 maturation on culture medium comprising 2.5 μM PCIB and 40 μM ABA. • C: As A, but from week 2 to week 4 maturation on culture medium comprising 5.0 μM PCIB and 40 μM ABA. • D: Maturation on medium comprising 2.5 μM PCIB and 40 μM ABA. • E: Maturation an medium comprising 5.0 μM PCIB and 40 μM ABA. Results

SMILES: CC(C)(Oc1ccc(Cl)cc1)C(=O)O [PCIB, p-Chlorophenoxyisobutyric acid]
- number of well-formed mature embryos ([1]; 25 μM PCIB + 40 μM ABA during the entire 20 week maturation period): about 125 embryos per Petri dish
- number of well formed mature embryos ([1]; 25 μM PCIB + 40 μM ABA from week 4 to 8 of the 20 week maturation period): about 40 embryos per Petri dish
- proliferation during maturation ([1]; 25 μM PCIB during the entire maturation period): strongly reduced
- proliferation during maturation ([1]; 25 μM PCIB from week 4 to 8 of the 20 week maturation period): reduced slightly
- embryos that developed both shoot and root on germination [2]: ~100%
- production of mature somatic embryos ([3]; cell line D.2.9, anti-auxin step (2.5 or 5.0 μM PCIB + 40 μM ABA)): a high number of mature somatic embryos are in turn produced
- number of somatic embryos compared with no anti-auxin step ([3]; cell lines D.4.1 and D.7.1 (A-type), 2.5 or 5.0 μM PCIB + 40 μM ABA): produced higher numbers of somatic embryos
- proliferation during maturation ([3]; cell lines D.4.1 and D.7.1, 2.5 or 5.0 μM PCIB + 40 μM ABA): reduce the proliferation during maturation
